Measured values: PubChem BioAssay AID2060508 (Molecular Pharmacology Branch, DTP, NCI, 2025)

Test system: 454973-116-R2-J3-PDC spheroids, viability, % test/control
Assay: Anticancer human tumor 454973-116-R2-J3-PDC patient-derived pancreatic carcinoma cell line growth inhibition [GQUAD]
Details: spheroids with HUVEC and MSC; for IC50: curve of first compound; for viability, T/C: stronger effect = lower value; active means viability on the fitted dose curve at most 10% of control; inactive means the rest
Outline: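 Viability of tumor cells grown as complex spheroids with endothelial and stromal cells, exposed to drug combinations. Top concentration at or near clinical Cmax (else 10 microM), diluted in half-log increments.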

[1] = second compound 0.0316 µM, first compound 0.0316 µM
[2] = second compound 0.0316 µM, first compound 0.1 µM
[3] = second compound 0.0316 µM, first compound 0.316 µM
[4] = second compound 0.0316 µM, first compound 1 µM
[5] = second compound 0.0316 µM, first compound 3.16 µM
[6] = second compound 0.0316 µM, first compound 10 µM
[7] = second compound 0.1 µM, first compound 0.0316 µM
[8] = second compound 0.1 µM, first compound 0.1 µM
[9] = second compound 0.1 µM, first compound 0.316 µM
[10] = second compound 0.1 µM, first compound 1 µM
[11] = second compound 0.1 µM, first compound 3.16 µM
[12] = second compound 0.1 µM, first compound 10 µM
[13] = second compound 0.316 µM, first compound 0.0316 µM
[14] = second compound 0.316 µM, first compound 0.1 µM
[15] = second compound 0.316 µM, first compound 0.316 µM
[16] = second compound 0.316 µM, first compound 1 µM
[17] = second compound 0.316 µM, first compound 3.16 µM
[18] = second compound 0.316 µM, first compound 10 µM
[19] = second compound 1 µM, first compound 0.0316 µM
[20] = second compound 1 µM, first compound 0.1 µM
[21] = second compound 1 µM, first compound 0.316 µM
[22] = second compound 1 µM, first compound 1 µM
[23] = second compound 1 µM, first compound 3.16 µM
[24] = second compound 1 µM, first compound 10 µM
[25] = second compound 3.16 µM, first compound 0.0316 µM
[26] = second compound 3.16 µM, first compound 0.1 µM
[27] = second compound 3.16 µM, first compound 0.316 µM
[28] = second compound 3.16 µM, first compound 1 µM
[29] = second compound 3.16 µM, first compound 3.16 µM
[30] = second compound 3.16 µM, first compound 10 µM
[31] = second compound 10 µM, first compound 0.0316 µM
[32] = second compound 10 µM, first compound 0.1 µM
[33] = second compound 10 µM, first compound 0.316 µM
[34] = second compound 10 µM, first compound 1 µM
[35] = second compound 10 µM, first compound 3.16 µM
[36] = second compound 10 µM, first compound 10 µM
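Further: spheroids exposed to compounds for seven days.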
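Wherever viability, T/C is given: 100% = DMSO vehicle control viability.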

Cc1cccc(N(C)C(=O)C2C(O)CCN2c2nc(C)cc(C(F)(F)F)c2C#N)c1 (centres undefined) + CN(C)c1ccc(Nc2c3ccc(NC(=O)CCN4CCCC4)cc3nc3cc(NC(=O)CCN4CCCC4)ccc23)cc1
inactive: viability, T/C [1] 106% | viability, T/C [2] 102% | viability, T/C [3] 103% | viability, T/C [4] 98.1% | viability, T/C [5] 109% | viability, T/C [6] 100% | viability, T/C [7] 102% | viability, T/C [8] 106% | viability, T/C [9] 98.6% | viability, T/C [10] 98% | viability, T/C [11] 92.6% | viability, T/C [12] 105% | viability, T/C [13] 102% | viability, T/C [14] 92.9% | viability, T/C [15] 97.7% | viability, T/C [16] 103% | viability, T/C [17] 93.9% | viability, T/C [18] 93.8% | viability, T/C [19] 93.4% | viability, T/C [20] 99.8% | viability, T/C [21] 92% | viability, T/C [22] 77.8% | viability, T/C [23] 92% | viability, T/C [24] 100% | viability, T/C [25] 92.5% | viability, T/C [26] 90% | viability, T/C [27] 85% | viability, T/C [28] 70.4% | viability, T/C [29] 86.1% | viability, T/C [30] 84.4% | viability, T/C [31] 74% | viability, T/C [32] 74.7% | viability, T/C [33] 60.5% | viability, T/C [34] 72.4% | viability, T/C [35] 74.5% | viability, T/C [36] 65.1%
> 10 µM: IC50 (second compound 0.0316 µM) | IC50 (second compound 0.1 µM) | IC50 (second compound 0.316 µM) | IC50 (second compound 1 µM) | IC50 (second compound 3.16 µM) | IC50 (second compound 10 µM)

CC(=O)O[C@H]1C(=O)[C@@]2(C)[C@H]([C@H](OC(=O)c3ccccc3)[C@]3(O)C[C@H](OC(=O)[C@H](O)[C@@H](NC(=O)c4ccccc4)c4ccccc4)C(C)=C1C3(C)C)[C@]1(OC(C)=O)CO[C@@H]1C[C@@H]2O + CN(C)c1ccc(Nc2c3ccc(NC(=O)CCN4CCCC4)cc3nc3cc(NC(=O)CCN4CCCC4)ccc23)cc1
inactive: viability, T/C [1] 16.5% | viability, T/C [7] 16% | viability, T/C [8] 11.7% | viability, T/C [13] 14% | viability, T/C [19] 16% | viability, T/C [25] 15.5% | viability, T/C [31] 21.6% | viability, T/C [32] 12.1%
< 0.0316 µM: IC50 (second compound 0.0316 µM) | IC50 (second compound 0.1 µM) | IC50 (second compound 0.316 µM) | IC50 (second compound 1 µM) | IC50 (second compound 3.16 µM) | IC50 (second compound 10 µM)
active: viability, T/C [2] 8.43% | viability, T/C [3] 9.5% | viability, T/C [4] 7.36% | viability, T/C [5] 8.24% | viability, T/C [6] 10.1% | viability, T/C [9] 7.58% | viability, T/C [10] 6.11% | viability, T/C [11] 8.15% | viability, T/C [12] 7.98% | viability, T/C [14] 10% | viability, T/C [15] 8.64% | viability, T/C [16] 7.04% | viability, T/C [17] 8.84% | viability, T/C [18] 10.1% | viability, T/C [20] 8.67% | viability, T/C [21] 6.76% | viability, T/C [22] 7.25% | viability, T/C [23] 6.69% | viability, T/C [24] 9.71% | viability, T/C [26] 9.08% | viability, T/C [27] 8.56% | viability, T/C [28] 6.91% | viability, T/C [29] 6.53% | viability, T/C [30] 8.28% | viability, T/C [33] 8.85% | viability, T/C [34] 7.09% | viability, T/C [35] 8.15% | viability, T/C [36] 8.56%
